# Assay results published in ChEMBL document CHEMBL1157179, “A CoMSIA study on the adenosine kinase inhibition of pyrrolo[2,3-d]pyrimidine nucleoside analogues” (Bioorg Med Chem, 2008).
# Target: Adenosine kinase (Homo sapiens) (UniProt P55263)
# Sequence (P55263 2-362 limits assumed): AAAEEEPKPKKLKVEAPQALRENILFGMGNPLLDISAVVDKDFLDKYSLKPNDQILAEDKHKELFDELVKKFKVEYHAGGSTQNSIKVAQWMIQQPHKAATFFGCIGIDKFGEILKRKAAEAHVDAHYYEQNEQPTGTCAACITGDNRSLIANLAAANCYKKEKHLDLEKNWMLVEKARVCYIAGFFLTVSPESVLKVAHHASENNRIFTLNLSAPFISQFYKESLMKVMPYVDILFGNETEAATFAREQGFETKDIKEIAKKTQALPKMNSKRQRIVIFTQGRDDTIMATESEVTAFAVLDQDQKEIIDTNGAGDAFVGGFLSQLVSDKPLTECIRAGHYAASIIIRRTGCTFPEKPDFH
row,Compound,log(10'3/IC50)
1,C[C@H]1O[C@@H](n2cc(Br)c3c(Cl)ncnc32)[C@H](O)[C@@H]1O,4.3
2,NC[C@H]1O[C@@H](n2ccc3c(N)ncnc32)[C@H](O)[C@@H]1O,1.89
3,NC[C@H]1O[C@@H](n2cc(I)c3c(N)ncnc32)[C@H](O)[C@@H]1O,6.22
4,COC[C@H]1O[C@@H](n2cc(I)c3c(N)ncnc32)[C@H](O)[C@@H]1O,2.92
5,NC[C@H]1O[C@@H](n2cc(I)c3c(Cl)ncnc32)[C@H](O)[C@@H]1O,7
6,N#Cc1cn([C@@H]2O[C@H](CO)[C@@H](O)[C@H]2O)c2ncnc(N)c12,3.51
7,C[C@H]1O[C@@H](n2cc(I)c3c(Cl)ncnc32)[C@H](O)[C@@H]1O,5.52
8,OC[C@H]1O[C@@H](n2cc(I)c3c(Cl)ncnc32)[C@H](O)[C@@H]1O,4.62
9,CC[C@H]1O[C@@H](n2cc(I)c3c(N)ncnc32)[C@H](O)[C@@H]1O,4.22
10,C[C@H]1O[C@@H](n2cc(I)c3c(SCc4ccc([N+](=O)[O-])cc4)ncnc32)[C@H](O)[C@@H]1O,2.7
11,C[C@H]1O[C@@H](n2cc(I)c3c(SCc4ccccc4)ncnc32)[C@H](O)[C@@H]1O,3
12,C[C@H]1O[C@@H](n2cc(I)c3c(S)ncnc32)[C@H](O)[C@@H]1O,2.19
13,C=C[C@H]1O[C@@H](n2cc(I)c3c(N)ncnc32)[C@H](O)[C@@H]1O,4
14,CC[C@H]1O[C@@H](n2cc(Br)c3c(N)ncnc32)[C@H](O)[C@@H]1O,3.3
15,CSc1ncnc2c1c(I)cn2[C@@H]1O[C@H](C)[C@@H](O)[C@H]1O,4.35
16,NC[C@H]1O[C@@H](n2cc(Br)c3c(N)ncnc32)[C@H](O)[C@@H]1O,6.7
17,C=CCSc1ncnc2c1c(I)cn2[C@@H]1O[C@H](C)[C@@H](O)[C@H]1O,2.55
18,Nc1ncnc2c1c(Cl)cn2[C@@H]1O[C@H](CO)[C@@H](O)[C@H]1O,3.68
19,Cc1cn([C@@H]2O[C@H](C)[C@@H](O)[C@H]2O)c2ncnc(Cl)c12,3.27
20,[N-]=[N+]=NC[C@H]1O[C@@H](n2cc(Br)c3c(N)ncnc32)[C@H](O)[C@@H]1O,4.2
21,Nc1ncnc2c1c(Br)cn2[C@@H]1O[C@H](CO)[C@@H](O)[C@H]1O,3.92
22,CNc1ncnc2c1c(I)cn2[C@@H]1O[C@H](CO)[C@@H](O)[C@H]1O,2.92
23,[N-]=[N+]=NC[C@H]1O[C@@H](n2cc(I)c3c(Cl)ncnc32)[C@H](O)[C@@H]1O,5.05
24,C[C@H]1O[C@@H](n2cc(C#N)c3c(N)ncnc32)[C@H](O)[C@@H]1O,3.51
25,CSc1cn([C@@H]2O[C@H](C)[C@@H](O)[C@H]2O)c2ncnc(N)c12,2.87
26,CSc1cn([C@@H]2O[C@H](C)[C@@H](O)[C@H]2O)c2ncnc(Cl)c12,4.15
27,[N-]=[N+]=NC[C@H]1O[C@@H](n2cc(Br)c3c(Cl)ncnc32)[C@H](O)[C@@H]1O,4
28,[N-]=[N+]=NC[C@H]1O[C@@H](n2cc(I)c3c(N)ncnc32)[C@H](O)[C@@H]1O,4.46
29,CCCCSc1ncnc2c1c(I)cn2[C@@H]1O[C@H](C)[C@@H](O)[C@H]1O,3
